Assay results reported in patent US20240002350A1, “PROTEIN AND LIPID THERAPEUTIC TARGETS” (UNIVERSITY OF PITTSBURGH-OF THE COMMONWEALTH SYSTEM OF …, priority 2020, published 2024).

Each compound was assayed on 15LOX/PEBP1 (assay: Potency of 15LOX/PEBP1 inhibitors with anti-ferroptotic effect (Table 1)). Conditions: not given.
Format: cell-based
Description: Development and testing of new compounds that inhibit 15LOX/PEBP1 complex activity. A combination of computational and experimental studies are used. […] Computer modeling considers specific features of organization of 15LOX/PEBP1 complexes and positioning of AA-PE as well as regio-specific oxygenation of AA-residues at 15th carbon. […] It has been shown that: i) binding interface of 15LOX in 15LOX/PEBP1 complex includes a helix on 15LOX (α2) and kinase binding epitope (D144, H145, R146) on PEBP1 (FIG. 8); and ii) interfacial interactions play a pivotal role in allosterically altering conformational dynamics of 15LOX in complex, and its substrate specificity. Analysis of change in access to catalytic site upon PEBP1 binding, using elastic network models indicates needed sites at 15LOX/PEBP1 binding interface. Dynamics simulations are also performed, for 15LOX alone and 15LOX/PEBP1 complex. An effective inhibitor, NCG-01, with in vivo activity has been indicated. Several other 15LOX/PEBP1 inhibitors with anti-ferroptotic effect (FIG. 9) have been identified. To test the effectiveness of compounds identified from the computational screen, RSL3 and mechanical stretch models with LDH and PI assays as a primary outcome are performed. The compounds that inhibit cell death by at least 50% are then evaluated for their effects on AA-PE and AA oxidation by 15LOX/PEBP1 complex and 15LOX alone, respectively, by LC-MS. Evaluation of the effect of compounds in suppressing AA-PE-OOH formation in cells upon proferroptotic stimuli is also performed.

Row | Compound | Potency
1 | NC(=O)c1ccc(CSc2nc(-c3ccccc3)cn2-c2cccc(F)c2)cc1 [Compound 50, 4-(((1-(3-fluorophenyl)-4-phenyl-1H-imidazol-2-yl)thio)methyl)benzamide] | + (+ > 1 μM)
2 | Fc1cccc(-n2cc(-c3ccccc3)nc2SCc2ccc(OC(F)F)cc2)c1 [Compound 51, 2-((4-(difluoromethoxy)benzyl)thio)-1-(3-fluorophenyl)-4-phenyl-1H-imidazole] | + (+ > 1 μM)
3 | Fc1cccc(-n2cc(-c3ccccc3)nc2SCc2ccc(C(F)F)cc2)c1 [Compound 52, 2-((4-(difluoromethyl)benzyl)thio)-1-(3-fluorophenyl)-4-phenyl-1H-imidazole] | + (+ > 1 μM)
4 | CC(C)(C)OC(=O)Nc1ccc(CSc2nc(-c3ccccc3)cn2-c2cccc(F)c2)cc1 [Compound 53, tert-butyl (4-(((1-(3-fluorophenyl)-4-phenyl-1H-imidazol-2-yl)thio)methyl)phenyl)carbamate] | + (+ > 1 μM)
5 | CC(Sc1nc(-c2ccccc2)cn1-c1cccc(F)c1)c1ccc(C(F)(F)F)cc1 (centres unmarked) [Compound 54, 1-(3-fluorophenyl)-4-phenyl-2-((1-(4-(trifluoromethyl)phenyl)ethyl)thio)-1H-imidazole] | + (+ > 1 μM)
6 | N#Cc1ccc(CSc2nc(-c3ccccc3)cn2-c2cccc(F)c2)cc1 [Compound 55, 4-(((1-(3-fluorophenyl)-4-phenyl-1H-imidazol-2-yl)thio)methyl)benzonitrile] | + (+ > 1 μM)
7 | N#Cc1ccc(CNc2nc(-c3ccccc3)cn2-c2cccc(F)c2)cc1 [Compound 56, 4-(((1-(3-fluorophenyl)-4-phenyl-1H-imidazol-2-yl)amino)methyl)benzonitrile] | ++ (++ = 101-1000 nM)
8 | Cc1cccc(CNc2nc(-c3ccccc3)cn2-c2cccc(F)c2)c1 [Compound 57, 1-(3-fluorophenyl)-N-(3-methylbenzyl)-4-phenyl-1H-imidazol-2-amine] | ++ (++ = 101-1000 nM)
9 | Fc1cccc(-n2cc(-c3ccccc3)nc2NCc2cccc(C(F)(F)F)c2F)c1 [Compound 58, N-(2-fluoro-3-(trifluoromethyl)benzyl)-1-(3-fluorophenyl)-4-phenyl-1H-imidazol-2-amine] | ++ (++ = 101-1000 nM)
10 | Fc1cccc(-n2cc(-c3ccccc3)nc2NCc2ccc(Cl)cc2)c1 [Compound 59, N-(4-chlorobenzyl)-1-(3-fluorophenyl)-4-phenyl-1H-imidazol-2-amine] | ++ (++ = 101-1000 nM)
11 | Fc1cccc(-n2cc(-c3ccccc3)nc2NCc2ccccc2)c1 [Compound 61, N-benzyl-1-(3-fluorophenyl)-4-phenyl-1H-imidazol-2-amine] | ++ (++ = 101-1000 nM)
12 | COc1cccc(CNc2nc(-c3ccccc3)cn2-c2cccc(F)c2)c1 [Compound 62, 1-(3-fluorophenyl)-N-(3-methoxybenzyl)-4-phenyl-1H-imidazol-2-amine] | ++ (++ = 101-1000 nM)
13 | Fc1cccc(-n2cc(-c3ccccc3)nc2NCc2cccc(C(F)(F)F)c2)c1 [Compound 63, 1-(3-fluorophenyl)-4-phenyl-N-(3-(trifluoromethyl)benzyl)-1H-imidazol-2-amine] | ++ (++ = 101-1000 nM)
14 | Fc1cccc(-n2cc(-c3ccccc3)nc2NCc2ccc(F)c(F)c2)c1 [Compound 64, N-(3,4-difluorobenzyl)-1-(3-fluorophenyl)-4-phenyl-1H-imidazol-2-amine] | ++ (++ = 101-1000 nM)
15 | Fc1cccc(-n2cc(-c3ccc(Br)cc3)nc2SCc2ccc(C3(C(F)(F)F)N=N3)cc2)c1 [Compound 65, 4-(4-bromophenyl)-1-(3-fluorophenyl)-2-((4-(3-(trifluoromethyl)-3H-diazirin-3-yl)benzyl)thio)-1H-imidazole] | + (+ > 1 μM)
16 | Fc1cccc(-n2cc(-c3ccccc3)nc2NCc2ccc(C(F)(F)F)c(Br)c2)c1 [Compound 66, N-(3-bromo-4-(trifluoromethyl)benzyl)-1-(3-fluorophenyl)-4-phenyl-1H-imidazol-2-amine] | ++ (++ = 101-1000 nM)
17 | COc1cc(CNc2nc(-c3ccccc3)cn2-c2cccc(F)c2)ccc1C(F)(F)F [Compound 67, 1-(3-fluorophenyl)-N-(3-methoxy-4-(trifluoromethyl)benzyl)-4-phenyl-1H-imidazol-2-amine] | ++ (++ = 101-1000 nM)
18 | Fc1cccc(-n2cc(-c3ccccc3)nc2NCc2ccc(C(F)(F)F)c(Cl)c2)c1 [Compound 68, N-(3-chloro-4-(trifluoromethyl)benzyl)-1-(3-fluorophenyl)-4-phenyl-1H-imidazol-2-amine] | ++ (++ = 101-1000 nM)
19 | Cc1cc(CNc2nc(-c3ccccc3)cn2-c2cccc(F)c2)ccc1C(F)(F)F [Compound 69, 1-(3-fluorophenyl)-N-(3-methyl-4-(trifluoromethyl)benzyl)-4-phenyl-1H-imidazol-2-amine] | ++ (++ = 101-1000 nM)

What follows are compounds tested on PND17 rats (assay: Controlled cortical impact (CCI) TBI model in PND17 rats). Conditions: 50 mg/kg i.p. 15 min after CCI.
Format: in vivo, rat
Method: (§1) Time course studies (0, 4, 8, 24 and 72 h) of TBI-induced changes in i) PE oxidation (oxidative lipidomics); ii) expression and activity of 15LOX, PEBP1, ACSL4, LPCAT3, iPLA2β and GPX4 (western blot); iii) formation of 15LOX/PEBP1 complexes (dual object recognition); and iv) GSH levels (fluorescent assay) will be performed as follows. An established model of in vitro TBI, severe mechanical stretch injury in primary cortical neurons, can be used. In brief, cortical neurons are cultured on 0.05% poly-D-lysine hydrobromide coated silicone substrate wells, and subjected to a computer controlled quantifiable mechanical insult by displacing the silicone substrate over a hollowed platform. In vivo TBI is induced by severe CCI (6-mm impactor tip, velocity of ±0.2 m/secs, deformation depth of 2.5 mm, impact duration of 50 msecs) to left parietal cortex in male and female PND 17 rats. To maximize rigor and reproducibility, animals are assigned to either sham (anesthesia and craniotomy) or CCI groups by block randomization. To ensure appropriate sample size for robustness, power analyses are performed in each experimental context. A sample size of 5 is preferred to detect a 25% difference in PE-OOH between CCI and control based on standard deviation observed in the experiments with an alpha of 0.05 and power of 0.80. Group assignments are blinded to the investigators who perform biochemical and histological endpoints. Statistical differences are analyzed using one-way ANOVA with post-hoc comparisons between groups if overall p<0.05 as appropriate. To address biological variability, both sexes are included.
Histological outcome assessment. Brains are quantitatively analyzed for total number of specific cell types and lesion volume using unbiased stereology as described. Diagnostic of ferroptosis in vivo are: 1) accumulation of doubly and triply oxygenated AA-PE species; 2) increased ACSL4; 3) decreased GPX4 activity or deficiency of GSH; 4) increased activity and expression of 15LOX; and 5) high levels of 15LOX-PEBP1 co-localization detectable by dual object recognition. […] TUNEL staining is used to quantify cell death. TUNEL is commonly used to detect apoptotic cells. However, cells undergoing other types of regulated death, including ferroptosis, are also TUNEL positive. In order to determine the apoptotic cell death, staining with cleaved caspase-3 antibody is performed.
Neurocognitive function is assessed by novel object recognition (NOR) and MWM (Morris Water Maze) tests. For NOR testing, rat is placed in a small enclosure with two similar objects and allowed to explore for a 35 min habituation phase. […] Percent time exploring original vs. novel object is recorded (2 min max). […] Visible platform performance and memory retention in a single probe trial on d17 are assessed. […]

Row | Compound | AA-PE oxidation | functional deficits in MWM task | hippocampal TUNEL positivity
20 | O=c1cc(-c2ccccc2)oc2cc(O)c(O)c(O)c12 [baicalein] | decreased | attenuated | attenuated

Same assay, conditions: i.c.v. administration after CCI, 24 h post-CCI

Row | Compound | neurodegeneration assessed by FJB positivity
21 | CCC/C=C/C/C=C/C=C/C=N/NN=O [Triacsin C] | attenuated neurodegeneration

Each compound was assayed on neurons (assay: Severe mechanical stretch injury in neurons). Conditions: 3-4 psi; Fer-1 0.4 μM, Triacsin C 10 μM, baicalein 5 μM.
Format: cell-based, rat
Method: Mean+SD, N=4/group, *p<0.05 vs 0 h. […] Mean±SD, N=3-4/group, *p<0.05 vs control, #p<0.05 vs vehicle. […] Mean+SD, N=4/group, *p<0.05 vs vehicle.
as §1

Row | Compound | cell death after severe mechanical stretch injury
22 | CCOC(=O)c1ccc(NC2CCCCC2)c(N)c1 [Fer-1] | rescued
23 | CCC/C=C/C/C=C/C=C/C=N/NN=O [Triacsin C] | rescued
24 | O=c1cc(-c2ccccc2)oc2cc(O)c(O)c(O)c12 [baicalein] | rescued
